For one assay, the system named is HT29. The experiment in a line: Necroptosis induced by TRAIL + zVAD-fmk + Bp (Birinapant) in HT29 cells. The following applies: for anti-necroptotic effect by inducer (in words, summary of Table 1): TNF-, TRAIL- or FasL-induced necroptosis in mouse or human cellular models; for EC50: Homo sapiens, HT-29, HT29, TRAIL + Zvad + Bp. It is filed as cell-based, human. The procedure:
(§1) Besides, the EC50 of compound 7, compound 10 and necrostatin-1 (Nec-1) were determined in mouse or human cellular models of necroptosis induced by FasL+zVAD-fmk (a pan-caspase inhibitor), TRAIL+zVAD-fmk+Bp (Birinapant, a Smac mimetics) or TNF, and by using two cytotoxic assays (MTS Cell Proliferation assay or intracellular ATP level).

Another assay has as its system L929sAhFas. The experiment in a line: Necroptosis induced by FasL + zVAD-fmk in L929sAhFas cells. It is filed as cell-based. The following applies: Mus musculus. On the procedure:
as §1

The next assay deals with Jurkat Fadd−/−. Kind of assay: Necroptosis induced by TNF in Jurkat Fadd−/− cells (Table 1). It is filed as cell-based. The following applies: Homo sapiens.
From the text: (§2) TNF-α can induce necroptosis in Jurkat cells (human T lymphocytes) when FADD was deleted. This model was used to screen various libraries of chemical compounds for characterization of new inhibitors of cellular necroptosis. Details on this cell-based assay can be found in Miao and Degterev (Methods Mol. Biol. 2009, 559, 79-93). The Jurkat FADD-deficient I 2.1 cell line used was purchased from ATCC and was maintained in RPMI 1640 medium (Gibco) containing Glutamax and 15% fetal calf serum (Life Technology). Necroptosis was induced by addition of 10 ng/ml of human recombinant TNF-α (Life Technology). Necrostatin-1 (Nec-1, Enzo Life Sciences) was used as model necroptosis inhibitor. Cells were maintained in 75 cm^2 flask and passed every 2 or 3 days. Chemical collections analysed were formatted in 96-well plates with 80 molecules per plates at 10 mM in 100% DMSO. For each collection plate, 2 cell plates were seeded (one necroptosis-induced with TNF-α and the other without TNF-α). Cells were seeded at 20000 cells/well, in 40 μl of medium, in a 96-well clear, flat bottom plate (CytoOne, Starlab) before treatment. Then, 40 μl of medium with or without TNF-α at 25 ng/ml were added to all wells in the corresponding plate. Immediately after TNF-α addition, 20 μl of diluted compound at 50 μM were added to the plates. Final concentration of each chemical compound was 10 μM at 0.1% DMSO. Four positives (Nec-1 at 10 μM final) and four negative (DMSO) controls were used in each plate to validate the assay. Cells were incubated at 37° C., 5% CO2 for 24 hours before performing MTS viability assay, described hereafter. Compounds were diluted before to treat cells. Liquid handling was performed using the Nimbus Microlab liquid handler (Hamilton Robotics) under microbiological safety workbench. The 10 mM compounds were diluted at 50 μM directly in cell medium.
as §1

Assay [1] relates to Jurkat FADD-deficient I 2.1 cell line. Kind of assay: Cell-based screening: necroptosis induced by TNF-α in Jurkat FADD-deficient cells, MTS viability assay. Also on record: species or system human. The following applies: for EC50: Homo sapiens, Jurkat FADD-deficient cells, TNF-α 10 ng/ml, 24 hours, MTS viability assay; for inhibition of necroptosis induced by TNF-α: human T lymphocyte, Jurkat FADD deficient cell line.
From the text: as §2

Assay [2] concerns the target T1, Human RIPK1 full length GST-tagged (Homo sapiens, UniProt Q13546).
T1 construct: Human RIPK1 full length GST-tagged was baculovirally expressed in Sf9 cells; GST; made in house; host or cells: Sf9 insect cells (baculovirus, Bac-to-Bac expression system, Invitrogen)
T1 sequence (Q13546 1-671): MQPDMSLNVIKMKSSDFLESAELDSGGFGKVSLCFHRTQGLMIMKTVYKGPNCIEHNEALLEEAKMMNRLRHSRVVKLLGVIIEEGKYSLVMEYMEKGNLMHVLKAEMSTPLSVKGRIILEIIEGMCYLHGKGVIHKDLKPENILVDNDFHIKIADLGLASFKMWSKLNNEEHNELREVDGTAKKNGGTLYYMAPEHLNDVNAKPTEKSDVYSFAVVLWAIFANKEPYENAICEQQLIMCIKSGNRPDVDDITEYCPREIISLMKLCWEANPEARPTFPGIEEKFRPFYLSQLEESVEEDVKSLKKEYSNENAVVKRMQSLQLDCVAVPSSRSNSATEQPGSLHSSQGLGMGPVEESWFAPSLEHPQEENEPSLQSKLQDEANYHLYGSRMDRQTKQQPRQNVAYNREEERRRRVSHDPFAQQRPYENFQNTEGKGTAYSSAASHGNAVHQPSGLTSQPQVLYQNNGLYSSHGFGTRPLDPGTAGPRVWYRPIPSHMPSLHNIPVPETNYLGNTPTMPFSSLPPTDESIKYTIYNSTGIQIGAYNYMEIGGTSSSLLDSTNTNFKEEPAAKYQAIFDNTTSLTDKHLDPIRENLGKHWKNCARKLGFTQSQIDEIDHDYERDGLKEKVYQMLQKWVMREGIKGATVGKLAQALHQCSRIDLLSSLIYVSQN
The experiment in a line: RIPK1 autophosphorylation assay. The class given is biochemical. The following applies: [γ-32P] ATP, radiographic film, FIG. 5. The procedure: RIPK1 Autophosphorylation Assay: Human RIPK1 full length GST-tagged was baculovirally expressed in Sf9 cells according to manufacturer's instructions (Bac-to-Bac expression system, Invitrogen) and purified using gluthation-sepharose beads (GE Healthcare). The elution was made in 50 mM Tris-HCl, pH 8.0 buffer supplemented with 30 mM reduced gluthatione (Sigma). The protocol used to detect the enzymatic activity is adapted from Miao and Degterev (Methods Mol. Biol. 2009, 559, 79-93). Kinase reaction was initiated mixing 5 μl of eluted RIPK1, 5 μl of 3× kinase reaction buffer (5 mM MOPS pH 7.2, 2.5 mM β-glycerophosphate, 4 mM MgCl2, 2.5 mM MnCl2, 1 mM EGTA, 0.4 mM EDTA, 50 μg/ml BSA, 0.05 mM DTT), 2 μl H2O and 3 μl of the tested molecule. The mixture was kept on ice for 10 minutes. During the incubation, the ATP solution was prepared by mixing 5 μl of 3× kinase reaction buffer, 4 μl H2O, 6 μl cold ATP at 150 μM and 2 μCi of [γ-^32P] ATP. Add the ATP solution and the tested inhibitor to the kinase and incubate for 30 minutes at 30° C. To stop the enzymatic reaction, 5 μl of loading buffer were added and solution was heated for 3 minutes at 95° C. 25 μl of each reaction were loaded per well in pre-cast NuPage 12% Bis-Tris gel (Life Technology). Autophosphorylated RIPK1 band was visualized on radiographic film after 6 h exposition at −80° C.

[3] abbreviates: MTS Cell Proliferation assay, read-out: EC50, MTS.
[4] abbreviates: intracellular ATP level, read-out: EC50, ATP level.

Results on eleven compounds are retold here after patent US10457678B2, “Substituted pyrrolo[2,3-b]pyridines as inhibitors of cellular necroptosis” (Institut National de la Sante et de la Recherche Medicale …, priority 2015, dated 2019).

The structures appear in SMILES notation. Entries after “also recorded” stand apart in the source; their conditions may differ. Where two headings read alike, the source gives them in different places.

The term EC50 denotes the concentration needed to bring the measured effect to its halfway point. Turning to `CCOc1ccc(-c2cc3cccn(C(=O)N(CC)CC)c-3n2)cc1` [Compound 7, 2-(4-ethoxyphenyl)-N,N-diethyl-7H-pyrrolo[2,3-b]pyridine-7-carboxamide], the “anti-necroptotic effect by inducer (in words, summary of Table 1)” value in the assay with HT29 was “only inhibits TNF- or FasL-induced necroptosis”. Also, the EC50 is 10 µM in the assay with L929sAhFas (setting [3]); 5 µM in the assay on L929sAhFas (setting [4]); 10 µM in the assay with Jurkat Fadd−/− (setting [3]); 9.3 µM in the assay on Jurkat Fadd−/− (setting [4]); 7 µM in assay [1]. For the same compound, the “inhibition of necroptosis induced by TNF-α” value (from here on “inhibition … by TNF-α”) in assay [1] is listed as “dose-dependent inhibition”.
`CCOc1ccc(-c2cc3cccnc3n2C(C)=O)cc1` [Compound 10, 1-(2-(4-ethoxyphenyl)-1H-pyrrolo[2,3-b]pyridin-1-yl)ethan-1-one]: the EC50 in the assay on HT29 (setting [3]) was 4 µM; in the assay with HT29 (setting [4]) it was 5 µM; in the assay on L929sAhFas (setting [3]) it was 3.5 µM; in the assay on L929sAhFas (setting [4]), 5 µM; in the assay with Jurkat Fadd−/− (setting [3]), 4 µM; with Jurkat Fadd−/− (setting [4]), 2.6 µM. The compound further gave an EC50 in assay [1] of 1.7 µM. Moreover, in the assay on HT29, the “anti-necroptotic effect by inducer (in words, summary of Table 1)” value is “inhibits TNF-, TRAIL- or FasL-induced necroptosis”. In assay [1], the “inhibition … by TNF-α” value was “dose-dependent inhibition”. The “inhibition of RIPK1 autophosphorylation (in words)” value in assay [2] was “dose-dependent inhibition; also recorded: inhibits, in a dose-dependent fashion”.
As to `CCOc1ccc(-c2cc3cccnc3n2C(=O)OC(C)(C)C)cc1` [Compound 17, tert-butyl 2-(4-ethoxyphenyl)-1H-pyrrolo[2,3-b]pyridine-1-carboxylate], in assay [1], a half-maximal response (EC50) required 3 µM and the “inhibition … by TNF-α” value is recorded as “dose-dependent inhibition”.
For `CCOc1ccc(-c2cc3cccn(C(=O)OCc4ccccc4)c-3n2)cc1` [Compound 21, benzyl 2-(4-ethoxyphenyl)-7H-pyrrolo[2,3-b]pyridine-7-carboxylate], in that order: 5 µM and “dose-dependent inhibition”.
On the same counts, the results for `CCOc1ccc(-c2cc3c(Cl)ccnc3n2C(=O)OC(C)(C)C)cc1` [Compound 26, tert-butyl 4-chloro-2-(4-ethoxyphenyl)-1H-pyrrolo[2,3-b]pyridine-1-carboxylate] are 2.4 µM and “dose-dependent inhibition”.
On the same counts, the results for `CCOc1ccc(-c2cc3cccnc3n2C(=O)OCC(Cl)(Cl)Cl)cc1` [Compound 32, 2,2,2-trichloroethyl 2-(4-ethoxyphenyl)-1H-pyrrolo[2,3-b]pyridine-1-carboxylate] are 2.5 µM and “dose-dependent inhibition”.
On to `CCOc1ccc(-c2cc3cccnc3n2C(=O)N2CCN(S(C)(=O)=O)C2=O)cc1` [Compound 33, 1-(2-(4-ethoxyphenyl)-1H-pyrrolo[2,3-b]pyridine-1-carbonyl)-3-(methylsulfonyl) imidazolidin-2-one], for which, in assay [1], a half-maximal response (EC50) required 1 µM and the “inhibition … by TNF-α” value is recorded as “dose-dependent inhibition”.
On the same counts, the results for `CCOc1ccc(-c2cc3cccn(C(=O)N(C(C)C)C(C)C)c-3n2)cc1` [Compound 34, 2-(4-ethoxyphenyl)-N,N-diisopropyl-7H-pyrrolo[2,3-b]pyridine-7-carboxamide] are 2 µM and “dose-dependent inhibition”.
For `CCOc1ccc(-c2cc3cccn(C(=O)N4CCCC4)c-3n2)cc1` [Compound 35, (2-(4-ethoxyphenyl)-7H-pyrrolo[2,3-b]pyridin-7-yl)(pyrrolidin-1-yl)methanone], in that order: 3.5 µM and “dose-dependent inhibition”.
With `CCOc1ccc(-c2cc3cccn(C(=O)N4CCN(C)CC4)c-3n2)cc1` [Compound 36, (2-(4-ethoxyphenyl)-7H-pyrrolo[2,3-b]pyridin-7-yl) (4-methylpiperazin-1-yl)methanone], in assay [1], the midpoint of the response, the EC50, lay at 1.05 µM and the “inhibition … by TNF-α” value is reported as “dose-dependent inhibition”.
Consider `CN1C(=O)C(Cc2c[nH]c3ccccc23)NC1=S` (stereo not drawn) [Nec-1, necrostatin-1, reference compound], for which the EC50 in the assay on HT29 (setting [3]) came to 1.2 µM; in the assay with HT29 (setting [4]), 2 µM; with L929sAhFas (setting [3]) it was 10 µM; in the assay with L929sAhFas (setting [4]), 10 µM; in the assay with Jurkat Fadd−/− (setting [3]), 1.3 µM; in the assay with Jurkat Fadd−/− (setting [4]) it was 1.3 µM.
